{"source": "patent US8722868B2", "about": "“Glycosyltransferase, novel glycosyltransferase gene, and novel sugar donor compound” (National University Corporation Tokyo University of …, priority 2009, dated 2014)", "biological_target": "T1, carnation-derived glycosyltransferase (SEQ ID NO: 1), recombinant crude enzyme liquid (Dianthus caryophyllus, UniProt E3W9M2)", "T1 construct": "the enzyme comprising 502 amino acid residues was translated, followed by amino acid removal via processing; added initiator methionine (one Met placed before the processed N-terminus SEFDRL...) (N); made in house; host or cells: Escherichia coli JM109 (crude lysate supernatant)", "T1 sequence (E3W9M2 31-502)": "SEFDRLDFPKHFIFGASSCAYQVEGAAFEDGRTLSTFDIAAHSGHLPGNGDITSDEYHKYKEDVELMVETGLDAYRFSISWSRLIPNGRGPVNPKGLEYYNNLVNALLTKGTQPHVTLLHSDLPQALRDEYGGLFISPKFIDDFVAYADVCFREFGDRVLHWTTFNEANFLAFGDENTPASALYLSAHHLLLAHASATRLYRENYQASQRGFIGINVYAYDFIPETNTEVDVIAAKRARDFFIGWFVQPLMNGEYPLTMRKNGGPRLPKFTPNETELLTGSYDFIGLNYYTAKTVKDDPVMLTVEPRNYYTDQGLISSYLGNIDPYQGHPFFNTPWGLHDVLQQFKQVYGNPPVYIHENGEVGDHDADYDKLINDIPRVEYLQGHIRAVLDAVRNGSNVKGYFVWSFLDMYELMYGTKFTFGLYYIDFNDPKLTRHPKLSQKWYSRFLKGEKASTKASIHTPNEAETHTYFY", "assay": "Glycosyl transfer reaction with carnation-derived glycosyltransferase gene expressed in Escherichia coli", "type": "biochemical", "conditions": "E. coli crude enzyme liquid, cyanidin-3-O-β-glucoside, pH 5.6, 30° C., 3 hours", "protocol": "The PCR product was ligated to a pTrcHis2-TOPO vector (Invitrogen) using a pTrcHis2-TOPO TA expression Kit (Invitrogen), followed by transformation of the Escherichia coli JM109 strain. DNA was extracted from the transformed Escherichia coli and the DNA nucleotide sequence was analyzed in the above manner. Accordingly, the direction of cDNA introduction and the nonoccurrence of a PCR-induced nucleotide substitution were confirmed.\nThe transformed Escherichia coli was seeded on an LB medium containing […] ampicillin (5 ml), followed by shake culture at 30° C. for 4 hours. Then, IPTG was added thereto to result in 1 mM, followed by shake culture at 16° C. for 2 hours. The cultured Escherichia coli was harvested via centrifugation at 1,800×g. The medium was removed therefrom. A 0.1 M citric acid buffer (pH 5.6) (150 μl) was added thereto, followed by sufficient mixing. The resultant was repeatedly subjected to ultrasonication on ice 3 times for 10 seconds (output: 4; duty: 70) using a ultrasonic disintegrator (UD-201, TOMY SEIKO Co., Ltd., Tokyo, Japan), followed by centrifugation at 20,000×g. The supernatant was transferred to a new centrifuge tube and designated as a crude enzyme liquid. […]", "data": [{"smiles": "COc1cc(C(=O)OC2OC(CO)C(O)C(O)C2O)ccc1O", "note": "(stereo not shown)", "values": [{"measurement": "Sugar donor function with recombinant carnation-derived glycosyltransferase (reaction product by HPLC)", "result": "Generation of cyanidin 3,5-O-β-diglucoside was confirmed"}]}]}
